In patent US20230055705A1, “SUBSTITUTED THIOPHENE CARBOXAMIDES AND DERIVATIVES THEREOF” (Bayer Aktiengesellschaft, priority 2019, published 2023):

Assays:
young plants of cabbage [1] = experiment: Phytotoxicity observed in the in vivo preventive test on Xanthomonas campestris pv. campestris; conditions: for phytotoxicity: 125 ppm
Protocol: The young plants of cabbage were treated by spraying the active ingredient prepared as described above. Control plants were treated only with an aqueous solution of acetone/Dimethyl sulfoxide/Tween®.
After 72 hours, the plants were contaminated by spraying the leaves with an aqueous bacteria suspension of Xanthomonas campestris pv. campestris. The contaminated cabbage plants were incubated for 8 or 10 days at 27° C. at 95% relative humidity.
Compounds CMP1, CMP2, CMP3 and CMP4 were tested in an in vivo preventive test on Xanthomonas campestris pv. campestris (black rot on cabbage) in the same conditions as described in Example H.

[2] = tested on: Xanthomonas campestris pv. campestris; experiment: In vivo preventive test on Xanthomonas campestris pv. campestris (black rot on cabbage); conditions: 31 ppm of active ingredient, evaluated 8 or 10 days after inoculation, read-out: efficacy
Outline: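 Young cabbage plants sprayed with compound in acetone/DMSO/Tween diluted in water; solvent-only controls. Leaves sprayed with bacterial suspension 72 h later, then held 8 or 10 days at 27° C and 95% relative humidity. Efficacy scored 8 or 10 days post-inoculation, 0% matching controls, 100% meaning no disease.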

young plants of cabbage [3] = experiment: Phytotoxicity observed in the in vivo preventive test on Peronospora parasitica; conditions: for phytotoxicity: 500 ppm
Protocol: The tested active ingredients were prepared by homogenization in a mixture of acetone/Dimethyl sulfoxide/Tween®, and then diluted with water to obtain the desired active material concentration. The young plants of cabbage were treated by spraying the active ingredient prepared as described above. Control plants were treated only with an aqueous solution of acetone/Dimethyl sulfoxide/Tween®.
After 72 hours, the plants were contaminated by spraying the leaves with an aqueous suspension of Peronospora parasitica spores. The contaminated cabbage plants were incubated for 5 days at 20° C. and at 100% relative humidity.
Compounds CMP2 and CMP3 were tested in an in vivo preventive test on Peronospora parasitica (Crucifer downy mildew) in the same conditions as described in Example G.

Compound | phytotoxicity (in place of Efficacy (%) at 125 ppm) (young plants of cabbage [1]) | phytotoxicity (young plants of cabbage [1]) | pest or weed control at 31 ppm [2] [%] | phytotoxicity (in place of Efficacy (%) at 500 ppm) (young plants of cabbage [3]) | phytotoxicity (young plants of cabbage [3])
COC(=O)[C@H](C)NC(=O)c1sc(Cl)c(Cl)c1Cl [CMP2] | * (No efficacy measured due to over 80% phytotoxicity observed) | over 80% | < 40 | * (No efficacy measured due to over 80% phytotoxicity observed) | over 80%
CCOC(=O)[C@H](C)NC(=O)c1sc(Cl)c(Cl)c1Cl [CMP3] | * (No efficacy measured due to over 80% phytotoxicity observed) | over 80% | 0 | * (No efficacy measured due to over 80% phytotoxicity observed) | over 80%
